Consider six compounds from patent US7902361B2, “Pyrimidin-4-yl-3, 4-thione compounds and their use in therapy” (Cyclacel Limited, priority 2003, dated 2011).

The target in one assay is T1, GSK3β (Homo sapiens, UniProt P49841).
T1 construct: purchased New England Biolabs
Kind of assay: GSK3β in vitro kinase assay. The class given is biochemical. The settings on record: recombinant human GSK3β, 100 μM ATP. A digest of the protocol: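 Radiometric filter-binding assay with GSK3β (1.5 units), 200 μM CREB phosphopeptide, 100 μM ATP plus [γ-32P]ATP, in 20 mM Tris HCl pH7.5, 5 mM DTT, 15 mM MgCl2, 2% DMSO; 30 min at 30° C, stopped with phosphoric acid. 32P incorporation counted by scintillation; IC50 from 10-point titration.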

The test system of assay [1] is glycogen synthase. In words: Glycogen synthase activation in HEK293 cells. The note with it: for Max FI (% to LiCl): maximum fold induction normalised to 40 mM LiCl. The class given is cell-based. The procedure: (§1) HEK293 cells, mouse adipocytes or rat myotubes were treated in 10-cm Petri dishes with different concentrations of GSK3 inhibitor example compounds for 90 minutes. At the end of the treatment period the cells were washed and scraped in ice cold PBS buffer supplemented with 20 mM NaF. The cells were pelleted by centrifugation and lysed in 300 μL buffer (50 mM.HEPES pH 7.5, 10 mM EDTA, 100 mM NaF, 5 mM DTT, protease inhibitor cocktail (Sigma)). After incubation for 30 min on ice the samples were cleared by centrifugation. The activity of glycogen synthase was determined in the soluble fraction at two different concentrations of […]—low (0.1 mM) and high (10 mM). The reaction was carried out for 30 min (buffer: 50 mM Tris pH 7.8, 20 mM EDTA, 25 mM NaF, 5 mM DTT). The reaction mixture (total volume of 90 μL) contained 1% glycogen, 0.3 mM UDP-glucose and 0.06 μCi ^14C-UDP-glucose. Reaction was stopped by transfer of 70 μL to a GFC 96-well filter plate, containing 140 μL 100% ethanol and the glycogen was allowed to precipitate for 1 h at 4° C. The wells were washed 2 times with 200 μL 66% ethanol and than allowed to dry. Subsequently, 100 μL of scintillation liquid was added, and plates were sealed and counted in a Packard Topcounter. Glycogen synthase activation was calculated as the ratio between the incorporation of labelled ^14C-UDP-glucose in glycogen at low and high concentration of […] (fractional velocity).
(§2) The ability of GSK3 inhibitors to activate glycogen synthase was determined in HEK293 cells, mouse adipocytes and rat myotubed. The compounds tested activated glycogen synthase in all three cellular systems with EC50 values in the sub-micromolar to low micromolar concentration range. Most of them exceeded the stimulation induced by 40 mM LiCl (the highest compound concentration used in the assay was 20 μM).

The target of the next assay is T2, DYRK1A (Homo sapiens, UniProt Q13627).
T2 construct: purchased Upstate
In words: DYRK1A in vitro kinase assay. The settings on record: recombinant human DYRK1A, 100 μM ATP. The class given is biochemical. The text has this:
Dual specificity tyrosine phosphorylation regulated kinase 1A (DYRK1A) has been proposed, amongst other functions, to play a role in the regulation of glycogen metabolism in a way similar to GSK3. Some of the example compounds of the present invention were screened against recombinant human DYRK1A in vitro and the determined IC50 values are shown in Table 9. According to our current knowledge inhibition of DYRK1A will have additional positive effect on stimulation of glycogen synthase.
A 10-point titration was set up to determine the IC50 values of selected example compounds against DYRK1A. Assays were performed using 96-well microtiter plates and a final volume of 25 μL/well. Each assay contained 2.3 milliunits of DYRK1A (Upstate), 50 μM Woodtide peptide ([…], Upstate), 20 mM Tris HCl pH 8.0, 10 mM DTT, 5 mM EGTA, 1 mM NaVO3, 31 mM β-glycerophosphate, 15 mM MgCl2 supplemented with 100 μM ATP and 0.5 μCi of [γ-^32P] ATP plus or minus inhibitor in 2% DMSO. Assays were carried out for 60 minutes at 30° C. before stopping the reaction by the addition of an equal volume of 75 mM aqueous phosphoric acid. Samples were then spotted onto a p81 filterplate (Whatman) and a vacuum applied. Wells were washed 3 times with 200 μL of dilute aqueous phosphoric acid before the addition of 50 μL Microscint 40 per well. Incorporation of radioactivity was determined on a Topcount microplate scintillation counter (Packard).

Assay [2] has as its system glycogen synthase. In words: Glycogen synthase activation in mouse adipocytes. The class given is cell-based. The settings on record: for Max FI (% to LiCl): maximum fold induction normalised to 40 mM LiCl. The protocol:
3T3-L1 mouse pre-adipocytes were grown in DMEM medium supplemented with 10% foetal calf serum (FCS) and penicillin/streptomycin until fully confluent. Cell differentiation was initiated by the addition of 0.5 mM IBMX (2-isobutyl-1-methylxanthine), 0.25 μM dexamethasone and 1 μg/mL insulin into the growth media. The differentiation medium was replaced after 4 days and 7 days. After the initiation of differentiation the cells were grown for an additional 3 days in DMEM, 10% FCS and antibiotics.
as §1, §2

A short description of assay [3]: Oral glucose tolerance in male ZDF fa/fa rats. The class given is in vivo, rat. The settings on record: for % Glucose Decrease AUC (−270–180 min) / % Glucose decrease-AUC (0–180 min): ZDF fa/fa rats, oral glucose tolerance, 30 mg/kg per os twice (−270 and −30 min). The procedure:
The ability of example compounds of the present invention to improve glucose metabolism was tested in 12-13 week old male ZDF fa/fa rats. The test animals (10-15 mmol/L fasting glucose level) were dosed twice at 30 mg/kg and the glucose challenge was given at time 0. […] Most of these blood levels were below the EC50 values determined in cellular assays.
12-13 weeks old male ZDF fa/fa rats were used to study the effect of example compounds on oral glucose tolerance. […] Body weight was recorded three times per week. Test compounds were dissolve in a formulation of 10% DMSO, 5% Tween, 5% Span 20, 30% PEG 400 and 50% water (v/v) to provide final solutions at 5 mg/mL concentration. Each experimental group contained 7 animals. After an 16 h overnight fast the test compounds were administered at 30 mg/kg per os twice (at −270 min and −30 min) before the oral glucose tolerance test was commenced (2 g glucose/kg per os as a 40% solution introduced via feeding tube). A control group was dosed in a similar manner with the vehicle only. Blood sampling for blood glucose measurement (20 μL blood) was performed at −270, 0, 15, 30, 60, 90, 120 and 180 min. Mixed venous blood was collected from the tail vein into 20-μL glass capillaries, which were placed in a standard tube filled with 1 mL solution for hemolysis. Glucose levels were measured using the glucose oxidase procedure (Super G Glukosemessgeraet; Dr Mueller Geraetebau, Freital, Germany). In addition, 50 μL blood samples were taken at 30 and 60 min after the glucose dose, placed in heparinized tubes, which were then frozen immediately in liquid nitrogen. The bioanalytical method used employed isocratic elution liquid chromatography—tandem mass spectrometry in electrospray positive ion multiple reaction monitoring mode.

The mark [4] stands for this setting: male ZDF fa/fa rats, 30 mg/kg per os twice, oral glucose tolerance test.

Structures are written as SMILES. Marks after values point to notes of the source that are not given here.

T1 sequence (P49841 whole entry): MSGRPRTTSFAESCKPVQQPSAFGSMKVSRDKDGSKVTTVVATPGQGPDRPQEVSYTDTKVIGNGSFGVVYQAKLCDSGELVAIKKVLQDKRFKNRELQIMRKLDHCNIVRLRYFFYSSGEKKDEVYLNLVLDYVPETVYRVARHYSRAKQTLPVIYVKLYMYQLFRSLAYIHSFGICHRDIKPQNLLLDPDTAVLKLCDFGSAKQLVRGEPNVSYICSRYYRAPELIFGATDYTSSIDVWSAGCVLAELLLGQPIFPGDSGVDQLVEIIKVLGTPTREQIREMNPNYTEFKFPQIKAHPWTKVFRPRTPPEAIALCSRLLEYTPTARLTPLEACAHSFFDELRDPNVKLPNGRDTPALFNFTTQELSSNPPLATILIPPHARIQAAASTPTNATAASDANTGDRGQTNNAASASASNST

On to `Cc1c(-c2ccnc(Nc3cc(Br)cc(C(F)(F)F)c3)n2)sc(=O)n1C` [Compound 68, 5-[2-(3-Bromo-5-trifluoromethyl-phenylamino)-pyrimidin-4-yl]-3,4-dimethyl-3H-thiazol-2-one], for which the half-maximal inhibitory concentration (IC50) (as a rule, the midpoint of a concentration-inhibition curve) on GSK3β came out at 61 nM; at DYRK1A, 73 nM. In addition, the EC50 (as a rule, the concentration giving half of the maximal effect) worked out at 8340 ± 1880 nM with glycogen synthase [1] (Homo sapiens) and 9550 ± 7400 nM in the assay with glycogen synthase [2] (Adipocyte). Besides, the “Max FI (% to LiCl)” value in the assay with glycogen synthase [1] is 96 % to LiCl; in the assay with glycogen synthase [2] it was 50 % to LiCl. Further, the “% Glucose Decrease AUC (−270–180 min)” value in assay [3] was determined as 5%. Further, the “% Glucose decrease-AUC (0–180 min)” value in assay [3] is 8.4* %. In assay [3] (setting [4]), the “decreased blood glucose levels” value is “statistically significant”. The “glucose AUC” value in assay [3] (setting [4]) is given as “moderate decrease”.
As for `CC(=O)Nc1cc(Nc2nccc(-c3sc(=O)n(C)c3C)n2)cc(C(F)(F)F)c1` [Compound 64, N-{3-[4-(3,4-Dimethyl-2-oxo-2,3-dihydro-thiazol-5-yl)-pyrimidin-2-ylamino]-5-trifluoromethyl-phenyl}-acetamide], the IC50 on GSK3β came to 3 nM; on DYRK1A it was 77 nM. The figures for the EC50 in the assay on glycogen synthase [1] (Homo sapiens) and in the assay on glycogen synthase [2] (Adipocyte) were 49 ± 70 nM and 148 ± 70 nM, respectively. The “Max FI (% to LiCl)” value is reported as 107 % to LiCl in the assay with glycogen synthase [1] and 143 % to LiCl with glycogen synthase [2]. Besides, the “% Glucose Decrease AUC (−270–180 min)” value in assay [3] was found to be 9%. Besides, the “% Glucose decrease-AUC (0–180 min)” value in assay [3] worked out at 8%. Also, the “glucose AUC” value in assay [3] (setting [4]) was “moderate decrease”.
Consider `CCNS(=O)(=O)c1cccc(Nc2nccc(-c3sc(=O)n(C)c3C)n2)c1` [Compound 62, 3-[4-(3,4-Dimethyl-2-oxo-2,3-dihydro-thiazol-5-yl)-pyrimidin-2-ylamino]-N-ethyl-benzenesulfonamide], for which the IC50 on GSK3β was 22 nM; on DYRK1A, 51 nM. The figures for the EC50 with glycogen synthase [1] (Homo sapiens) and in the assay with glycogen synthase [2] (Adipocyte) were 684 ± 133 nM and 432 ± 179 nM, respectively. In addition, the “Max FI (% to LiCl)” value with glycogen synthase [1] is recorded as 117 % to LiCl; in the assay on glycogen synthase [2], 234 % to LiCl. Also, the “% Glucose Decrease AUC (−270–180 min)” value in assay [3] turned out to be 9%. In addition, in assay [3], the “% Glucose decrease-AUC (0–180 min)” value was determined as 3.6%.
Consider `CNc1cc(Nc2nccc(-c3sc(=O)n(C)c3C)n2)cc(C(F)(F)F)c1` [Compound 76, 3,4-Dimethyl-5-[2-(3-methylamino-5-trifluoromethyl-phenylamino)-pyrimidin-4-yl]-3H-thiazol-2-one], for which the IC50 on GSK3β was 18.9 nM. In addition, in the assay on glycogen synthase [1], the 50% effective concentration (EC50) stood at 444 ± 178 nM and the “Max FI (% to LiCl)” value is on record as 88 % to LiCl. The IC50 at DYRK1A stood at 148 nM. Besides, in the assay on glycogen synthase [2], the response was half-maximal at 1110 ± 530 nM (EC50) and the “Max FI (% to LiCl)” value is recorded as 196 % to LiCl. In addition, in assay [3], the “% Glucose Decrease AUC (−270–180 min)” value was 0% and the “% Glucose decrease-AUC (0–180 min)” value is on record as 0.5%.
For the compound `Cc1c(-c2ccnc(Nc3cccc(S(=O)(=O)NCCO)c3)n2)sc(=O)n1C` [Compound 75, 3-[4-(3,4-Dimethyl-2-oxo-2,3-dihydro-thiazol-5-yl)-pyrimidin-2-ylamino]-N-(2-hydroxy-ethyl)-benzenesulfonamide], the IC50 on GSK3β is 25 nM; at DYRK1A it was 26 nM. Moreover, the concentration for a half-maximal effect (EC50) in the assay with glycogen synthase [1] (Homo sapiens) was 5170 ± 2200 nM; in the assay on glycogen synthase [2] (Adipocyte), 2190 ± 400 nM. The “Max FI (% to LiCl)” value in the assay with glycogen synthase [1] is 108 % to LiCl; in the assay on glycogen synthase [2], 181 % to LiCl. In addition, the “% Glucose Decrease AUC (−270–180 min)” value in assay [3] was 13%. For the same compound, the “% Glucose decrease-AUC (0–180 min)” value in assay [3] was determined as 6.4%.
Consider `COCCNS(=O)(=O)c1cccc(Nc2nccc(-c3sc(=O)n(C)c3C)n2)c1` [Compound 67, 3-[4-(3,4-Dimethyl-2-oxo-2,3-dihydro-thiazol-5-yl)-pyrimidin-2-ylamino]-N-(2-methoxy-ethyl)-benzenesulfonamide], for which the results for the IC50 at GSK3β and at DYRK1A were 23 nM and 19 nM, respectively. Further, the EC50 was determined as 3720 ± 2500 nM in the assay with glycogen synthase [1] (Homo sapiens) and 4830 ± 4600 nM in the assay with glycogen synthase [2] (Adipocyte). For the same compound, the “Max FI (% to LiCl)” value in the assay on glycogen synthase [1] is reported as 85 % to LiCl; in the assay with glycogen synthase [2] it was 177 % to LiCl. Moreover, the “% Glucose Decrease AUC (−270–180 min)” value in assay [3] was found to be 14%. Moreover, the “% Glucose decrease-AUC (0–180 min)” value in assay [3] amounted to 7.5%. In addition, the “glucose AUC” value in assay [3] (setting [4]) is listed as “moderate decrease”.
